Read-outs that look alike come from different tables or passages of the source. Each block holds one compound with its values, some of them ahead of it.
Columns and labels:
[1] = log P by HPLC on a reversed-phase column (C 18), EEC Directive 79/831 Annex V.A8; format: physicochemical; details: for chromatographic logP: reversed-phase HPLC column (C 18)
Excerpt: Called log P (HCOOH) in the table.
Called log P (neutral) in the table.

[2] = tested on: larvae of the mustard beetle (Phaedon cochleariae); experiment: Phaedon cochleariae - spray test; format: in vivo; details: after 7 days
Description: Solvent: 78.0 parts by weight of acetone • • 1.5 parts by weight of dimethylformamide
Emulsifier: alkylaryl polyglycol ether
(§1) To produce a suitable active compound formulation, 1 part by weight of active compound is dissolved with the stated parts by weight of solvent and made up with water containing an emulsifier concentration of 1000 ppm until the desired concentration is attained. To produce further test concentrations, the formulation is diluted with emulsifier-containing water.
Discs of Chinese cabbage leaves (Brassica pekinensis) are sprayed with an active compound formulation of the desired concentration and, after drying, populated with larvae of the mustard beetle (Phaedon cochleariae).
After 7 days, the efficacy in % is determined. 100% means that all the beetle larvae have been killed and 0% means that none of the beetle larvae have been killed.

[3] = tested on: caterpillars of the armyworm (Spodoptera frugiperda); experiment: Spodoptera frugiperda - spray test; format: in vivo; details: maize leaf discs, after 7 days
Description: Solvent: 78.0 parts by weight of acetone • • 1.5 parts by weight of dimethylformamide Emulsifier: alkylaryl polyglycol ether […] To produce further test concentrations, the formulation is diluted with emulsifier-containing water. Leaf discs of maize (Zea mays) are sprayed with an active compound preparation of the desired concentration and, after drying, populated with caterpillars of the armyworm (Spodoptera frugiperda).

[4] = tested on: unfed adult cat fleas (Ctenocephalides felis); experiment: Ctenocephalides felis - oral test; format: in vivo; details: application rate 100 ppm in citrated cattle blood; after 2 days
Description: (§2) Solvent: dimethyl sulphoxide
For the purpose of production of a suitable active compound formulation, 10 mg of active compound are mixed with 0.5 ml of dimethyl sulphoxide. Dilution with citrated cattle blood gives the desired concentration.
About 20 unfed adult cat fleas (Ctenocephalides felis) are placed into a chamber which is closed at the top and bottom with gauze. A metal cylinder whose bottom end is closed with parafilm is placed onto the chamber. The cylinder contains the blood/active compound formulation, which can be imbibed by the fleas through the parafilm membrane.
After 2 days, the kill in % is determined. 100% means that all of the fleas have been killed; 0% means that none of the fleas have been killed.

[5] = tested on: L1 larvae of the Australian sheep blowfly (Lucilia cuprina); experiment: Lucilia cuprina test; format: in vivo; details: application rate 100 ppm; after 2 days
Description: as §2
To produce a suitable active compound formulation, 10 mg of active compound are mixed with 0.5 ml of dimethyl sulphoxide, and the concentrate is diluted with water to the desired concentration.
About 20 L1 larvae of the Australian sheep blowfly (Lucilia cuprina) are transferred into a test vessel containing minced horsemeat and the active compound formulation of the desired concentration.
After 2 days, the kill in % is determined. 100% means that all the larvae have been killed; 0% means that no larvae have been killed.

[6] = tested on: green peach aphid (Myzus persicae); experiment: Myzus persicae - spray test (Chinese cabbage leaf discs); format: in vivo; details: after 5 days
Description: Solvent: 78 parts by weight of acetone • • 1.5 parts by weight of dimethylformamide Emulsifier: alkylaryl polyglycol ether
as §1
Discs of Chinese cabbage leaves (Brassica pekinensis) infested by all stages of the green peach aphid (Myzus persicae) are sprayed with an active compound formulation of the desired concentration.
After 5 days, the efficacy in % is determined. 100% means that all the aphids have been killed and 0% means that none of the aphids have been killed.

[7] = acidic range, pH 2.7, 0.1% aqueous formic acid/acetonitrile, 55° C.
[8] = neutral range, pH 7.8, 0.001 molar aqueous ammonium hydrogencarbonate/acetonitrile, 55° C.

chromatographic logP ([1]; acidic range, pH 2.7, 0.1% aqueous formic acid/acetonitrile, 55° C., read-out: LOGP_HCOOH (log P (HCOOH))): 3.55
chromatographic logP ([1]; neutral range, pH 7.8, 0.001 molar aqueous ammonium hydrogencarbonate/acetonitrile, 55° C., read-out: LOGP_NEUTRAL (log P (neutral))): 3.45
SMILES: CCS(=O)(=O)c1ccc(-c2cn(C)c3ccccc23)nc1-c1nc2cc(C(F)(F)F)ncc2n1C [Example I-1, 2-[3-(Ethylsulphonyl)-6-(1-methyl-1H-indol-3-yl)pyridin-2-yl]-3-methyl-6-(trifluoromethyl)-3H-imidazo[4,5-c]pyridine]

LOGP_HCOOH (log P (HCOOH)) ([1]; pH 2.7): 3.18
LOGP_NEUTRAL (log P (neutral)) ([1]; pH 7.8): 3.08
SMILES: CCS(=O)(=O)c1ccc(-c2cc3cc(C#N)ccc3[nH]2)nc1-c1nc2cc(C(F)(F)F)ncc2n1C [Example I-3]
efficacy ([2]; application rate 100 g/ha): 100%
efficacy ([2]; application rate 500 g/ha): 100%
efficacy ([3]; application rate 100 g/ha): 100%
efficacy ([3]; application rate 500 g/ha): 83%
efficacy (kill) [4]: 95%
efficacy (kill) [5]: 100%

LOGP_HCOOH (log P (HCOOH)) ([1]; pH 2.7): 3.90
LOGP_NEUTRAL (log P (neutral)) ([1]; pH 7.8): 3.83
SMILES: CCS(=O)(=O)c1ccc(-c2cc3ccccc3n2C)nc1-c1nc2cc(C(F)(F)F)ncc2n1C [Example I-4]
efficacy (kill) [5]: 90%

SMILES: CCS(=O)(=O)c1ccc(-n2ncc3ccncc32)nc1-c1nc2cc(C(F)(F)F)ncc2n1C [Example I-7]
efficacy ([2]; application rate 100 g/ha): 100%
efficacy ([2]; application rate 500 g/ha): 100%

SMILES: CCS(=O)(=O)c1ccc(-n2ncc3cccc(Cl)c32)nc1-c1nc2cc(C(F)(F)F)ncc2n1C [Example I-8]
LOGP_HCOOH (log P (HCOOH)) [1, 7]: 3.44
LOGP_NEUTRAL (log P (neutral)) [1, 8]: 3.34

LOGP_HCOOH (log P (HCOOH)) ([1]; pH 2.7): 4.03
LOGP_NEUTRAL (log P (neutral)) ([1]; pH 7.8): 4.03
SMILES: CCS(=O)(=O)c1ccc(-n2ncc3cc(Cl)ccc32)nc1-c1nc2cc(C(F)(F)F)ncc2n1C [Example I-9]

LOGP_HCOOH (log P (HCOOH)) ([1]; pH 2.7): 4.27
LOGP_NEUTRAL (log P (neutral)) ([1]; pH 7.8): 4.18
SMILES: CCS(=O)(=O)c1ccc(-n2cc3c(Cl)cc(C(F)(F)F)cn3c2=O)nc1-c1nc2cc(C(F)(F)F)ncc2n1C [Example I-12]
efficacy ([2]; application rate 100 g/ha): 100%
efficacy ([2]; application rate 500 g/ha): 100%
efficacy ([6]; application rate 100 g/ha): 90%
efficacy ([6]; application rate 500 g/ha): 90%
efficacy ([3]; application rate 100 g/ha): 100%
efficacy ([3]; application rate 500 g/ha): 100%

LOGP_HCOOH (log P (HCOOH)) ([1]; pH 2.7): 2.46
LOGP_NEUTRAL (log P (neutral)) ([1]; pH 7.8): 2.45
SMILES: CC[S+]([O-])c1ccc(-n2cc3cccnc3n2)nc1-c1nc2cc(C(F)(F)F)ncc2n1C (stereo not shown) [Example I-13]

LOGP_HCOOH (log P (HCOOH)) ([1]; pH 2.7): 2.71
LOGP_NEUTRAL (log P (neutral)) ([1]; pH 7.8): 2.65
SMILES: CCS(=O)(=O)c1ccc(-c2ccc3cn(C)nc3c2)nc1-c1nc2cc(C(F)(F)F)ncc2n1C [Example I-14]
efficacy ([6]; application rate 500 g/ha): 70%
efficacy ([3]; application rate 100 g/ha): 100%
efficacy ([3]; application rate 500 g/ha): 100%

LOGP_HCOOH (log P (HCOOH)) ([1]; pH 2.7): 2.73
LOGP_NEUTRAL (log P (neutral)) ([1]; pH 7.8): 2.67
SMILES: CCS(=O)(=O)c1ccc(-c2cccc3nn(C)cc23)nc1-c1nc2cc(C(F)(F)F)ncc2n1C [Example I-16]
efficacy ([2]; application rate 500 g/ha): 83%

LOGP_HCOOH (log P (HCOOH)) ([1]; pH 2.7): 2.51
LOGP_NEUTRAL (log P (neutral)) ([1]; pH 7.8): 2.69
SMILES: CCS(=O)(=O)c1ccc(-n2ccc3nccc(Cl)c32)nc1-c1nc2cc(C(F)(F)F)ncc2n1C [Example I-19]
efficacy ([2]; application rate 100 g/ha): 100%
efficacy ([2]; application rate 500 g/ha): 100%
efficacy ([6]; application rate 100 g/ha): 90%
efficacy ([6]; application rate 500 g/ha): 70%

SMILES: CCS(=O)(=O)c1ccc(-n2ccc3ncccc32)nc1-c1nc2cc(C(F)(F)F)ncc2n1C [Example I-20]
LOGP_HCOOH (log P (HCOOH)) [1, 7]: 1.75
LOGP_NEUTRAL (log P (neutral)) [1, 8]: 2.47

LOGP_HCOOH (log P (HCOOH)) ([1]; pH 2.7): 4.04
LOGP_NEUTRAL (log P (neutral)) ([1]; pH 7.8): 4.04
SMILES: CCS(=O)(=O)c1ccc(-n2ccc3ccc(Cl)cc32)nc1-c1nc2cc(C(F)(F)F)ncc2n1C [Example I-23]
efficacy ([6]; application rate 500 g/ha): 90%

SMILES: CCS(=O)(=O)c1ccc(-n2ccc3cc(Cl)ccc32)nc1-c1nc2cc(C(F)(F)F)ncc2n1C [Example I-25]
LOGP_HCOOH (log P (HCOOH)) [1, 7]: 4.10
LOGP_NEUTRAL (log P (neutral)) [1, 8]: 4.09

SMILES: CCS(=O)(=O)c1ccc(-n2ccc3ccccc32)nc1-c1nc2cc(C(F)(F)F)ncc2n1C [Example I-26]
LOGP_HCOOH (log P (HCOOH)) [1, 7]: 3.72
LOGP_NEUTRAL (log P (neutral)) [1, 8]: 3.65

Source: patent US10375962B2, “Heterocycle derivatives as pesticides” (BAYER CROPSCIENCE AKTIENGESELLSCHAFT, priority 2016, dated 2019)
